Test results: publication PMC4546427, “Stereoselective Regulation of P-gp Activity by Clausenamide Enantiomers in Caco-2, KB/KBv and Brain Microvessel Endothelial Cells” (PLoS ONE, 2015)
Values joined by “and” are separate entries in the source; they are usually repeats but may differ in a detail not shown here. Equal entries are not always repeated.

Assays:
[1] = target: T1, P-gp (Homo sapiens, UniProt P08183); assay: Rh123 accumulation in Caco-2 cells; type: cell-based; conditions: for Percentage of rhodamine 123 accumulation relative to vehicle treatment: positive = increase; for More Rh123 accumulation than verapamil alone: verapamil 200 μmol/L plus CLA 5 μmol/L
T1 construct: three cells expressing P-gp, Caco-2, KBv and rat brain microvessel endothelial cells (RBMEC); endogenous in cells; host or cells: Caco-2
T1 sequence (P08183 whole entry): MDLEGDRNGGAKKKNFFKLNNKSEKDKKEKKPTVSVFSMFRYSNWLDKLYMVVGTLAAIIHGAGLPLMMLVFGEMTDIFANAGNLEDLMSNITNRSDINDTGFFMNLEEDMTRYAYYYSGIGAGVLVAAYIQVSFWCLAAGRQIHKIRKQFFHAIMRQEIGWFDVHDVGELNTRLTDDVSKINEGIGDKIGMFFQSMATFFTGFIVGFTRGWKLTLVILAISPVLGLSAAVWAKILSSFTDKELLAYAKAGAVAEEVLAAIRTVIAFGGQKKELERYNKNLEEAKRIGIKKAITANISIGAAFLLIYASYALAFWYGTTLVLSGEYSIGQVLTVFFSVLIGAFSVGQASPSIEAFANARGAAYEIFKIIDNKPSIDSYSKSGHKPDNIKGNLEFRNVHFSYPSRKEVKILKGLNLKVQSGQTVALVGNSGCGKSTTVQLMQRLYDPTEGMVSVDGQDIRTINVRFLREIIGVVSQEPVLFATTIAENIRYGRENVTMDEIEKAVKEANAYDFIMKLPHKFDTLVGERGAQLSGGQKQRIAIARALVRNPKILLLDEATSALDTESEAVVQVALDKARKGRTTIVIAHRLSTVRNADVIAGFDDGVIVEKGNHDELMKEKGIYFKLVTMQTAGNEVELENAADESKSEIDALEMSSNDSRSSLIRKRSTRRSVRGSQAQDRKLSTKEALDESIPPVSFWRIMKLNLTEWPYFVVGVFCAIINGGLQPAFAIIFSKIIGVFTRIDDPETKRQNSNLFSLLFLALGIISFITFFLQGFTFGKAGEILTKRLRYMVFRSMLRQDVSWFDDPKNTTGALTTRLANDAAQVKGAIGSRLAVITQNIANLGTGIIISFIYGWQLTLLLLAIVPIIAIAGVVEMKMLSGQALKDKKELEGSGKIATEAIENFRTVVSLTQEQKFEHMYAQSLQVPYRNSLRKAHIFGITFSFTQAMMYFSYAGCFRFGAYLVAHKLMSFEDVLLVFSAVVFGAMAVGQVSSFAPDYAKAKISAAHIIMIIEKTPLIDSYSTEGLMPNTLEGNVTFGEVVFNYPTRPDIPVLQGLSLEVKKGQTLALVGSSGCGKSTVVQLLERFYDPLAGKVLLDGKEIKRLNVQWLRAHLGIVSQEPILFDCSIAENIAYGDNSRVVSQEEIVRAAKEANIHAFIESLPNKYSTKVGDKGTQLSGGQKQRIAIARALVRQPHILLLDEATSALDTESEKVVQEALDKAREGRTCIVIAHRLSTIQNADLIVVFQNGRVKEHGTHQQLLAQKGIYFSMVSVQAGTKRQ
Description: Caco-2 cells were seeded onto 6-well plates at a density of 5 × 10^5 cells/well and maintained in MEM supplemented with 10% (v/v) FBS, 1% (v/v) NEAA, 100 units/mL penicillin and 100 μg/mL streptomycin sulphate in a humidified 37°C incubator with 5% CO2. Upon 80%–90% confluence, the cells were provided new complete medium (2 mL/well) and exposed, to vehicle, (−)CLA (1 or 5 μmol/L), (+)CLA (1 or 5 μmol/L), verapamil (200 μmol/L) or individual enantiomer (1 or 5 μmol/L) plus verapamil (200 μmol/L). Then, Rh123 (5 μmol/L) was added to all the wells. After incubation at 37°C and 5% CO2 for 2 h which was designed by the pharmacokinetic parameters of CLA enantiomers, the cells were washed 3 times with 2 mL of ice-cold PBS (pH 7.4), lysed in 400 μL of lysis buffer [50 mmol/L Tris-HCl (pH 8.0), 150 mmol/L NaCl, 0.1% SDS, 100 μg/mL PMSF, 1 μg/mL aprotinin and 1% Nonidet P-40], and then were placed on ice for 40 min. The plates were wrapped in tinfoil. The fluorescence of Rh123 in each well was detected by Spectra Max Gemini XS plate reader (Molecular Devices Corp., Sunnyvale, CA, USA) with excitation and emission wavelengths of 488 nm and 530 nm, respectively. Meanwhile, 10 μL of cell lysates were collected from each well to measure protein concentration using Lowry’s method. Intracellular Rh123 accumulation was normalized by protein concentration (mg/mL) and then was calculated by a standard curve of Rh123 at three concentrations (2.5–10 μmol/L), in parallel with the lysis experiment.

[2] = system: P-gp; assay: Rh123 accumulation in RBMECs; type: cell-based, rat; conditions: RBMEC; for Increase in Rh123 accumulation relative to verapamil alone: co-treatment CLA 5 μmol/L with verapamil 200 μmol/L; for Percentage of rhodamine 123 accumulation relative to vehicle treatment: positive = increase
Description: The experimental programs in this part were approved by the Animal Care and Welfare Committee in our institute. Animals were treated in accordance with national/international guidelines. Primary cultures of brain microvessel endothelial cells were prepared from Sprague—Dawley rats (10–12 days old; Beijing Vital River Company, Beijing, China), as previously described by Qian et al.[21]. The gray matter of animals was taken out and minced into small pieces of approximately 1 mm^3 in ice-cold MEM medium, then dissociated by using 2 mg/mL collagenase containing DNase at a final concentration of 10.5 μg/ml on a shaker for 20 min at 37°C. The cells were pelleted by centrifugation(1000 rpm, 10 min, 4°C) and digested once again according to the above protocol. Then 20% dextran(Mr 40,000) was added to the cells for differential centrifugation at 2000 rpm for 10 min. The cells were re-suspended in complete MEM medium and passed through 74-μm stainless steel mesh. Obtained RBMECs were seeded on 1% (w/v) gelatin-coated culture flasks and cultivated in complete medium (MEM, 20% FBS, 0.9 mg/mL glutamate, 10 mmol/L hepes, 100 ng/mL bFGF, 100 μg/mL heparin sulphate, 100 units/mL penicillin, 100 μg/mL streptomycin sulphate and 50 units/mL amphotericin B) at 37°C and 5% CO2, which was refreshed with complete medium 4 h after seeding to eliminate non-endothelial cells. A final concentration of 2 μg/mL of puromycin was added for 7 h to further purify the cultured cells. The purity of RBMECs was examined by their morphological characteristics using a phase-contrast microscope, and immunocytochemistry of a specific marker, factor VIII-associated antigen, with a rabbit anti-factor VIII polyclonal antibody and FITC-conjugated goat anti-rabbit factor VIII secondary antibody by immunofluorescence microscopy (Olympus IX 70-S1Z2, Olympus Optical CO. Ltd., Japan). The P-gp expression in cultured cells was determined by Western blot analyses using a mouse monoclonal antibody raised against amino acids 1040–1280 of P-gp. When the cultures in the flasks reached 80%–90% confluence, the purified RBMECs were passaged by a brief treatment with trypsin (0.25%, w/v) and EDTA (0.02%, w/v) solution and seeded onto 6-well plates at a density of 5 × 10^5 cells/well; after 2–3 days, incubated with the following agents for 2 h under culture conditions (37°C, 5% CO2 and humidified air): vehicle; (−)CLA (1 or 5 μmol/L); (+)CLA (1 or 5 μmol/L); verapamil (200 μmol/L); or individual enantiomer (1 or 5 μmol/L) plus verapamil (200 μmol/L). In the end, Rh123 (5 μmol/L) was added to the whole wells. The cell incubation, solubilisation and Rh123 accumulation were performed according to the same method for Caco-2 cells described above.
Primary cultures of brain microvessel endothelial cells were prepared from Sprague–Dawley rats (10–12 days old; Beijing Vital River Company, Beijing, China), as previously described by Qian et al.[21]. Animals were anesthetized by intraperitoneal injection of 20% ethyl carbamate at dose of 1g/kg[35], and sterilized by immersion in 75% alcohol solution for 2 min. The gray matter of these animals was taken out and minced into small pieces of approximately 1 mm^3 in ice-cold MEM medium, then dissociated by using 2 mg/mL collagenase containing DNase at a final concentration of 10.5 μg/ml on a shaker for 20 min at 37°C. The cells were pelleted by centrifugation(1000 rpm, 10 min, 4°C) and digested once again according to the above protocol. Then 20% dextran(Mr 40,000) was added to the cells for differential centrifugation at 2000 rpm for 10 min. The cells were re-suspended in complete MEM medium and passed through 74-μm stainless steel mesh. […]

[3] = system: P-gp; assay: P-gp expression in KB cells: Western blots; type: cell-based, Human; conditions: 5 μmol/L, 24 h, normalized to GAPDH
Description: The sensitive, non-induced KB cells on 6-well plates were grown to 80%–90% confluence and incubated with the following agents for 24 h at 37°C and 5% CO2: vehicle, (−)CLA (1 or 5 μmol/L), (+)CLA (1 or 5 μmol/L), or verapamil (100 μmol/L). The cells were washed 3 times with ice-cold PBS (pH 7.4) and were lysed with 80 μL of lysis buffer described above. Lysates were frozen with liquid nitrogen, thawed in water at 37°C three times and centrifuged at 15,000 ×g for 10 min. The protein concentration of the supernatant was determined by Lowry’s method with bovine serum albumin as the standard. Proteins (48 μg) were separated by SDS-PAGE on a 10% separating gel and 4% stacking gel, and were transferred onto Immobilon-P membranes. The transferred proteins were treated with a blocking buffer (5% non-fat dried milk and 0.02% NP-40 in PBS) and then incubated with P-gp or GAPDH antibodies (at a 1:100 dilution) or HRP-conjugated secondary antibodies (1:1000 dilution) at 37°C for 1 h, respectively. The protein bands were visualized with enhanced chemiluminescence according to the manufacturer’s instructions. The density of the bands was quantified by scanning densitometry (LAS-3000 Imaging System, Fujifilm, Japan; and Kodak Digital Science 1D Analysis Software, Rochester, NY, USA) and was expressed as normalized values to GAPDH.

[4] = design: method as in PMID 12923804; conditions: rats; oral administration; n = 6; cited from earlier work
[5] = design: method as in PMID 23684935; conditions: rabbits; oral dose of 100 mg/kg; cited from earlier work
[6] = system: CYP3A1; design: method as in PMID 23684935, PMID 12692891; conditions: rat liver; cited from earlier work
[7] = design: method as in PMID 23684935; conditions: cited from earlier work
[8] = high dose, CLA 5 μmol/L, Rh123 5 μmol/L, 2 h
[9] = low dose, CLA 1 μmol/L, Rh123 5 μmol/L, 2 h
[10] = CLA 1 μmol/L, Rh123 5 μmol/L, 2 h

Row | Structure (SMILES) | Percentage of rhodamine 123 accumulation relative to vehicle treatment [1, 8] | Percentage of rhodamine 123 accumulation relative to vehicle treatment [1, 9] | More Rh123 accumulation than verapamil alone [1] [%] | Increase in Rh123 accumulation relative to verapamil alone [2] [%] | Percentage of rhodamine 123 accumulation relative to vehicle treatment [2, 8] | Percentage of rhodamine 123 accumulation relative to vehicle treatment [2, 9] | Rh123 accumulation relative to verapamil alone (in words) ([2]; verapamil 200 μmol/L plus CLA 1 μmol/L) | P-gp expression downregulated relative to vehicle control [3] [%] | AUC0–12 h [4] [µg·min/mL] | AUC0–8 h in the portal vein [5] [µg·h/mL] | Induction of CYP3A1 expression, comparison of enantiomers [6] | Decrease of Rh123 intracellular accumulation relative to vehicle control [1, 10] [%] | Reduction of Rh123 intracellular concentration relative to verapamil treatment alone ([1]; co-treatment CLA 1 μmol/L with verapamil 200 μmol/L) [%] | Decrease of Rh123 accumulation relative to vehicle control [2, 10] [%] | Decrease in Rh123 accumulation relative to verapamil alone ([2]; co-treatment of verapamil 200 μmol/L with CLA 1 μmol/L) [%] | P-gp expression upregulated relative to vehicle control [3] [%] | Ratio [(+)/(−)] of cumulative amounts of biliary excretion [7] | Ratio [(+)/(−)] of cumulative amounts of urinary excretion [7]
1 | CN1C(=O)[C@@H](O)[C@H](c2ccccc2)[C@@H]1[C@@H](O)c1ccccc1 [(−)CLA, 3S, 4R, 5R, 6S-clausenamide] | 63.0% and 62.97% | 28.5% and 28.51% | 24.2 | 24.5 | 58.46% | 20.0% and 20.04% | slightly increased trend | 15.9 | 1256 ± 308 | 1001 ± 487 | higher expression of CYP3A1 than the (+)-isomer |  |  |  |  |  |  | 
2 | CN1C(=O)[C@H](O)[C@@H](c2ccccc2)[C@H]1[C@H](O)c1ccccc1 [(+)CLA, 3R,4S,5S,6R-CLA] | 58.2% and 58.22% | -11.68% | 23.1 | 18.5 | 41.1% and 41.13% | -20.04% |  |  | 2446 ± 540 | 2453 ± 1101 |  | 11.7 | 29.3 | 20.0 | 26.5 | 54.5 | 3.49 | 3.81
